The values below come from PMC5651862 (Scientific Reports, 2017).

The structures appear in SMILES notation.

The nature of data set [1]: Resazurin conversion assay (cytotoxicity). It is filed as cell-based. Particulars: human, HEK293 cells, HEK293, vs DMSO 0.1%, read-out: cell viability. As to the method:
Assessment of cytotoxicity […]
on cell viability assessed by the resazurin conversion assay in HEK293 cells. HEK293 cells were […]
conversion was measured after 4 hours. Results are expressed as % cell viability compared to the solvent control DMSO (0.1%). Data are expressed as means ± SD of three independent experiments performed in quadruplicate. (One-way ANOVA, Dunnett´s test, p<0.01**). […]
resofurin. Conversion of this non-fluorescent agent to resofurin depends on redox equivalents provided by cellular metabolism. Thus, the conversion (fluorescence signal) is direct proportional to the number of viable cells and thus to cell viability. HEK293 cells (ATCC, Manassas, VA) were seeded in 96-well plates at a density of 40,000 cells per well and incubated for 24 hours in DMEM supplemented with 2 mM glutamine, 100 U/ml benzylpenicillin, 100 μg/ml streptomycin, and 10% fetal bovine serum. Next day, cells were incubated with increasing concentrations of the indicated […]
After 24 hours of incubation with the test compounds cells were washed again in PBS and then incubated with 10 μg/mL resazurin […]
solution in PBS. After 4 hours plates were read on a Tecan GeniosPro plate reader using an excitation wavelength of 535 nm and an emission wavelength of 580 nm. […]

Data set [2] has as its target T1, purified human PPARγ LBD (Homo sapiens, UniProt P37231).
T1 construct: purchased Invitrogen
T1 sequence (P37231 238-503 limits assumed): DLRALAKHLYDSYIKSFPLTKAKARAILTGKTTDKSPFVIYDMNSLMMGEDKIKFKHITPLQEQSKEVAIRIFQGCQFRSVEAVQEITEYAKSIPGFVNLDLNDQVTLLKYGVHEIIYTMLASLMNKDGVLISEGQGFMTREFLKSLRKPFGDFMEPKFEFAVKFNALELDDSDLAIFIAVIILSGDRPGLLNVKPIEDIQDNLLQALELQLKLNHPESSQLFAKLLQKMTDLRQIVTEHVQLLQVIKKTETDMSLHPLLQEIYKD
Briefly: LanthaScreen TR-FRET PPARγ competitive binding assay. As to the method:
In this assay a fluorescently labeled ligand (Fluormone, Invitrogen) is displaced upon binding of the tested compound leading to a decrease in the FRET signal. Binding to the receptor was assessed in a concentration-dependent manner. […] Compounds that bind to the PPARγ LBD displace the fluorescently labeled ligand […]. […] Data points are represented as mean ± SEM from four independent experiments performed in duplicate. […] HEK-293 cells were transfected as described in the Methods section and stimulated for 18 h, as indicated. Luciferase activity was normalized to EGFP-derived fluorescence. Results are expressed as fold induction compared with the solvent control (DMSO, 0.1%). EC50 values were calculated using a sigmoidal curve fit with variable slope. […] HEK293 cells were transfected as described in the Methods section, treated as indicated for 18 h and luciferase activity measured as under (A). All data are shown as means ± SD of at least three independent experiments performed in quadruplicate. […] The compounds were dissolved in DMSO (solvent vehicle) and incubated together with the human PPARγ LBD tagged with GST, terbium-labeled anti-GST antibody and fluorescently labeled PPAR ligand (Fluormone™ Pan-PPAR Green). Binding of a ligand results in a fluorescence resonance energy transfer (FRET) after excitation of terbium at 340 nm and in an emission at 520 nm. Test compounds binding to the human PPARγ LBD are competing with the fluorescently labeled ligand and displacing it, resulting in a decrease of the FRET signal. […] All quantifications were performed with a GeniosPro plate reader (Tecan).
To calculate the EC50 values data were curve fitted and non-linear transformed using a sigmoidal dose response with variable slope.

Data set [3] addresses T2, PPARγ/RXRα heterodimer (Homo sapiens, UniProt P19793+P37231).
T2 construct: transfected with 6 μg of full-length human PPARγ and full-length human RXRα expression plasmid, respectively or both; expressed in transfected cells; host or cells: HEK293
T2 sequence (P37231 1-477 isoform P37231-2): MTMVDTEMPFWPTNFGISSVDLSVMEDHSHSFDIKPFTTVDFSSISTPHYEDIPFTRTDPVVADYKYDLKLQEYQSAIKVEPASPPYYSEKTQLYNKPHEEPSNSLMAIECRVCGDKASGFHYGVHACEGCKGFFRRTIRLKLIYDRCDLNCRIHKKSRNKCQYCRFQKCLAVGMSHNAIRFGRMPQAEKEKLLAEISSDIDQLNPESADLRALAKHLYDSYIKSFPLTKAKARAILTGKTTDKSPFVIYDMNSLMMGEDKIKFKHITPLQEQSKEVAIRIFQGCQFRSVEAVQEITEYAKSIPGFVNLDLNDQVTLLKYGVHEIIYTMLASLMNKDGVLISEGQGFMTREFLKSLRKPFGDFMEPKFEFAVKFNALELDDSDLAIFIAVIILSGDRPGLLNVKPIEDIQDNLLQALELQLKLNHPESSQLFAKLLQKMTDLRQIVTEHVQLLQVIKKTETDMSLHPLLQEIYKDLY
T2 sequence (P19793 1-462): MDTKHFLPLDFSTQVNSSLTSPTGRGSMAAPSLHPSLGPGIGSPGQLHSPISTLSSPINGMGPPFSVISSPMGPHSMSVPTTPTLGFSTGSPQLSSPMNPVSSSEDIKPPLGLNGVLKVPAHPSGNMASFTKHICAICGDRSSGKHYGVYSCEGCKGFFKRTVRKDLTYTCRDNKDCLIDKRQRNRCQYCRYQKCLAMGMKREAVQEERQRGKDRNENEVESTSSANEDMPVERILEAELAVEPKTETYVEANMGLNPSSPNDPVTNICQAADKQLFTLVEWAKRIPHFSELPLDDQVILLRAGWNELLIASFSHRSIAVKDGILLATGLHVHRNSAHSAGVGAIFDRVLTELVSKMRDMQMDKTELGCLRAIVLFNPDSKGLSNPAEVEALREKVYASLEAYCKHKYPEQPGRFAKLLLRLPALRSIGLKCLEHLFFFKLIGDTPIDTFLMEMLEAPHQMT
Briefly: PPARγ/RXRα heterodimer-induced luciferase reporter transactivation in co-transfected HEK293 cells. It is filed as cell-based. The conditions noted are these: 18 h. The text has this: Luciferase activity was normalized to EGFP-derived fluorescence.

For data set [4], the system named is 3T3-L1 preadipocytes. Briefly: Adipocyte differentiation in 3T3-L1 pre-adipocytes (Oil Red O). The conditions noted are these: 1–10 µM, 8 days, insulin 1 µg/mL. It is filed as cell-based. As to the method:
PPARγ plays a major role in adipocyte differentiation and in the regulation of adipose-related genes that are involved in developing the adipose phenotype. […]
solution in PBS. After 4 hours plates were read on a Tecan GeniosPro plate reader using an excitation wavelength of 535 nm and an emission wavelength of 580 nm.
Adipocyte differentiation in 3T3-L1 cells
Insulin control Rosiglitazone (1 µM) […]
dimer (1). 3T3-L1 cells were incubated in medium containing insulin (1 µg/mL) for 8 days with or […]
µM) was used as positive control. The medium was exchanged every second day. At day 8, cells were fixed in 10% formaldehyde, stained with Oil Red O and photographed (A). Oil Red O was then […]
solubilized and quantified at 550 nm using a plate reader (B). Lipid accumulation is expressed as fold increase compared to the insulin/solvent control (1 µg/mL insulin in 0.1 % DMSO) and is expressed as means ± SD of three independent experiments (One-way ANOVA, Bonfferoni post test, p<0.05 *). […]
Medium was exchanged every second day. After eight days, lipid accumulation (as a measure of adipogenic differentiation) was determined by Oil Red O staining as described previously.5 For this, cells were fixed in 10% formaldehyde for 1 h and stained with Oil Red O for 10 minutes. […]

In data set [5] the target is T3, full-length human RXRα (Homo sapiens, UniProt P19793).
T3 sequence (P19793 1-462): T2 sequence (P19793 1-462)
Put plainly: RXRα-dependent luciferase reporter gene transactivation in HEK293 cells. Particulars: HEK293, 18 h, up to 10 µM.

In data set [6] the target is T4, full-length human PPARγ (Homo sapiens, UniProt P37231).
T4 sequence (P37231 1-477 isoform P37231-2): T2 sequence (P37231 1-477 isoform P37231-2)
Put plainly: PPARγ-dependent luciferase reporter gene transactivation in HEK293 cells.

For `C=CCc1ccc(O)c(-c2cc(CC=C)ccc2O)c1` [magnolol, reference compound], in data set [1], the viability at 24 h, 10 µM is no less than 90% and the viability at 24 h, 30 µM is 9.1 ± 9.05%.

For the molecule `C=CCc1ccc(O)c(-c2cc(CC=CCCCc3cc(O)c(-c4cc(CC=C)ccc4O)cc3CC=C)ccc2O)c1` [magnolol dimer (1)], in data set [2] (competitive displacement of Fluormone Pan-PPAR Green, Cheng-Prusoff, four independent experiments in duplicate), the Ki amounted to 0.00503 µM. Besides, in data set [2] (ratio of Ki values), the “fold higher affinity to human PPARγ LBD compared to magnolol” value was “more than 12 fold” and the “fold higher affinity to human PPARγ LBD compared to pioglitazone” value was “more than 16 fold”. For the same molecule, in data set [3] (10 µM compound plus full RXR agonist bexarotene, HEK293 co-transfected), the “fold activation of PPARγ/RXRα heterodimer, co-treatment with bexarotene” value was determined as 13.20 ± 3.98 fold. Besides, the “fold activation of PPARγ/RXRα heterodimer” value in data set [3] (10 µM, HEK293 co-transfected with PPARγ and RXRα, vs DMSO 0.2%) stood at 3.82 ± 1.22 fold. Also, in data set [1], the viability at 24 h, 10 µM was no less than 90% and the viability at 24 h, 30 µM stood at 22.7 ± 5.35%. Also, the “adipocyte differentiation (result in words)” value in data set [4] was “induces adipocyte differentiation”. Also, in data set [5], the “RXRα-dependent luciferase gene expression (result in words)” value is reported as “does not activate RXRα-dependent luciferase gene expression”. For the same molecule, in data set [5] (listed as the dimer), the “RXRα-dependent luciferase gene expression (result in words)” value is “did not transactivate RXRα-dependent luciferase gene expression”. In data set [6], this molecule displayed an EC50 of 1.52 µM. In data set [6] (HEK293, 18 h, Emax values ± SD, results as fold induction vs DMSO), the “Emax PPARγ-dependent luciferase transactivation” value worked out at 4.67 ± 0.26. Also, the “efficacy compared to pioglitazone” value in data set [6] (HEK293, Emax relative to full agonist pioglitazone) was “around 62%”. In addition, the “fold lower potency compared to magnolol” value in data set [6] (ratio of EC50 values) is given as “about 1.5 fold”.
